Measurements taken from ChEMBL document CHEMBL1671776, “Convergent evolution-guided design of antimicrobial peptides derived from influenza A virus hemagglutinin” (J Med Chem, 2011).
Calls of active or inactive are those of the source. The calls are words filed in the database; no cut-off is given here.

Key:
[1] = tested on: Agrobacterium tumefaciens; assay: Antimicrobial activity against Agrobacterium tumefaciens assessed as lethal concentration; format: functional
[2] = tested on: Stenotrophomonas; assay: Antimicrobial activity against Stenotrophomonas LZ-1 assessed as lethal concentration; format: functional
[3] = tested on: Serratia marcescens; assay: Antimicrobial activity against Serratia marcescens assessed as lethal concentration; format: functional
[4] = tested on: Pseudomonas putida; assay: Antimicrobial activity against Pseudomonas putida assessed as lethal concentration; format: functional
[5] = tested on: Saccharomyces cerevisiae; assay: Antimicrobial activity against Saccharomyces cerevisiae assessed as lethal concentration; format: functional
[6] = tested on: Micrococcus luteus; assay: Antimicrobial activity against Micrococcus luteus assessed as lethal concentration; format: functional
[7] = tested on: Klebsiella sp.; assay: Antimicrobial activity against Klebsiella sp. F51-1-2 assessed as lethal concentration; format: functional
[8] = tested on: Priestia megaterium; assay: Antimicrobial activity against Bacillus megaterium assessed as lethal concentration; format: functional
[9] = tested on: Pseudomonas aeruginosa; assay: Antimicrobial activity against Pseudomonas aeruginosa assessed as lethal concentration; format: functional
[10] = tested on: Geotrichum candidum; assay: Antifungal activity against Geotrichum candidum assessed as lethal concentration; format: functional
[11] = tested on: Salmonella typhimurium; assay: Antimicrobial activity against Salmonella Typhimurium assessed as lethal concentration; format: functional, Salmonella enterica subsp. enterica serovar Typhimurium
[12] = tested on: Bacillus sp.; assay: Antimicrobial activity against Bacillus sp. DM-1 assessed as lethal concentration; format: functional
[13] = tested on: Stenotrophomonas; assay: Antimicrobial activity against Stenotrophomonas YC-1 assessed as lethal concentration; format: functional
[14] = Cytotoxicity against mouse erythrocyte assessed as hemolysis at 50 uM; format: cell-based; settings: erythrocytes, read-out: Activity
[15] = tested on: Shewanella oneidensis; assay: Antimicrobial activity against Shewanella oneidensis assessed as lethal concentration; format: functional
[16] = tested on: Bacillus sp.; assay: Induction of membrane disruption in Bacillus sp. DM-1 at 10 uM after 30 mins using propidium iodide; format: functional, organism-based
[17] = Salmonella enterica subsp. enterica serovar Typhimurium

Substance | Activity [1] | Activity [2] | Activity [3] | Activity [4] | Activity [5] | Activity [6] | Activity [7] | Activity [8] | Activity [9] | Activity [10] | Activity [11] | Activity [12] | Activity [13] | hemolysis at 50 µM [14] | Activity [15] | Activity [11, 17] | Activity [16]
H-IFGAIAGFIKNIW-NH2 | 20.79 µM | >100 µM | 19.25 µM | 9.78 µM | 28.29 µM | 5.95 µM | 23.81 µM | 14.1 µM | 31.55 µM | 5.36 µM | >100 µM | 2.16 µM | 76.98 µM | 24.1% | 76.98 µM | – | –
H-IFGAIAGFIKNGW-NH2 | inactive | inactive | >100 µM | inactive | 83.26 µM | 14.1 µM | >100 µM | inactive | inactive | inactive | – | 5.36 µM | inactive | – | inactive | inactive | –
H-IFGAIAGFIKNIW-OH | inactive | inactive | inactive | inactive | inactive | inactive | inactive | inactive | inactive | inactive | – | 49.93 µM | inactive | – | inactive | inactive | –
H-IFGAIAGFIKNGW-OH | inactive | inactive | inactive | inactive | inactive | inactive | inactive | inactive | inactive | inactive | – | 49.93 µM | inactive | – | inactive | inactive | –
H-IFGAIAGLLKNIF-NH2 [Meucin-13] | 11.8 µM | – | inactive | – | 18.3 µM | 2.9 µM | – | 0.25 µM | inactive | >50 µM | >50 µM | 2 µM | 6.2 µM | 64.7% | 6.2 µM | – | Active
